Measured values from US7307062B2, “Method for treating a mental disorder” (priority 2003, dated 2007).
“Also recorded” adds a separate entry of the source.

What was measured:
[1] = system: child with autistic disorder; assay: Case history five (autistic disorder); type: in vivo, human
[2] = system: child with autistic disorder; assay: Case history CM (autistic disorder); type: in vivo, human; conditions: clarithromycin
Description: […] They remained hospitalized for 80 days and suffered from significant medical complications due to their premature birth. […] They have severe delays in fine and gross motor skills. Also, severe delays in receptive and expressive language, consistent with their premature birth. […] […] […] Specific behaviors include irritability and temper tantrums, odd meaningless movements, and odd meaningless vocalizations. […] In spite of the placement of tympanostomy tubes […], […] continued to develop recurrent and persistent otis media untila second set of tubes were inserted approximately six months later. […] Head banging and tantrums stopped.

[3] = system: child with autistic disorder; assay: Case study one (autistic disorder), successive antimicrobial and probiotic treatments
[4] = system: child with Childhood Disintegrative Disorder; assay: Case history two (childhood disintegrative disorder), metronidazole therapy; type: in vivo, human
[5] = system: adolescent with ADHD, bipolar and conduct disorder; assay: Case study three (ADHD, major depressive disorder, bipolar)
[6] = system: person with psychiatric symptoms; assay: Case study four (major depressive disorder, obsessive compulsive disorder, atypical psychosis, Crohn's disease); type: in vivo, human
Description: patient four was a person whose symptoms were consistent with major depressive disorder, obsessive compulsive disorder, and atypical psychosis. Standard anti-psychotic medications were unsuccessful in treating the symptoms. The person also had severe gastrointestinal symptoms and was subsequently diagnosed with Crohn's disease. The person began treatment with prednisone and mesalamine, a standard therapy for Crohn's disease. […] Behavior problems were absent. […] A few months thereafter, the person experienced an acute psychiatric relapse and was admitted to the hospital. A colonoscopy confirmed active lesions in the right colon consistent with Crohn's disease. Treatment with prednisone and mesalamine was initiated for their Crohn's disease, with the prednisone later tapered to 20 mg/day after several months. […] the person was able to return to high school and completed their junior year with high honors.

children with autism = assay: Vancomycin and retreatment followed by probiotic fecal enema in children with autism lacking peptostreptococcal species; conditions: four children with autism
[7] = system: children with regressive onset autism; assay: Open-label trial of oral vancomycin in children with regressive-onset autism
[8] = metronidazole standard dosage for 17 days
[9] = Wilcoxon Signed Ranks Z=−2.9, p=0.003, baseline vs during therapy
[10] = vancomycin 500 mg/day orally, of ten children studied

COCC1=C(C(=O)OC(C)OC(=O)OC(C)C)N2C(=O)[C@@H](NC(=O)/C(=N\OC)c3csc(N)n3)[C@H]2SC1 (stereo partly drawn) [cefpodoxime proxetil]
behavior as soon as antibiotics were finished ([1]; in vivo): became more hyper, more easily aggitated, and more aggressive
autistic symptoms while taking the antimicrobial ([1]; prescribed for ear infection, calmness, improved sleep patterns, more signs for communication): positive improvement in their autistic symptoms

CC[C@H]1OC(=O)[C@H](C)[C@@H](O[C@H]2C[C@@](C)(OC)[C@@H](O)[C@H](C)O2)[C@H](C)[C@@H](O[C@@H]2O[C@H](C)C[C@H](N(C)C)[C@H]2O)[C@](C)(OC)C[C@@H](C)C(=O)[C@H](C)[C@@H](O)[C@]1(C)O [clarithromycin]
behavior, parental report [2]: became more cooperative and was much calmer
head banging and tantrums, parental report [2]: stopped

Cc1ncc([N+](=O)[O-])n1CCO [metronidazole]
aggressive and hyperactive behaviors ([3]; metronidazole 250 mg t.i.d. for 21 days, end of treatment): substantially reduced
Social behavior, After Metronidazole ([4]; after discontinuation, on Lactobacillus Acidophilus GG): Reverted to baseline
Attitude/State of Mind, After Metronidazole ([4]; after discontinuation, on Lactobacillus Acidophilus GG 20 billion cells per day): Reverted to baseline
Speech, After Metronidazole ([4]; after discontinuation, on Lactobacillus Acidophilus GG, logic and coherence of speech): Initially regressed,
Ability: Physical or Mental, After Metronidazole ([4]; after discontinuation, on Lactobacillus Acidophilus GG, sleep): Remained somewhat
Speech, After Metronidazole ([4]; after discontinuation, on Lactobacillus Acidophilus GG, voice quality): Reverted to baseline
Ability: Physical or Mental, During Metronidazole [4, 8]: Fell asleep quickly
Attitude/State of Mind, During Metronidazole [4, 8]: Aware of surroundings; also recorded: Relaxed and calm; also recorded: Happy, pleasant
Social behavior, During Metronidazole ([4]; metronidazole standard dosage for 17 days, aggression towards little brother): No aggression towards
Speech, During Metronidazole ([4]; metronidazole standard dosage for 17 days, logic and coherence of speech): Speech on topic, more
Social behavior, During Metronidazole ([4]; metronidazole standard dosage for 17 days, peer interaction and play skills): Marked improvement in
Speech, During Metronidazole ([4]; metronidazole standard dosage for 17 days, social communication): Initiated and
Speech, During Metronidazole ([4]; metronidazole standard dosage for 17 days, voice quality): Voice normal, natural,
positive gains after discontinuation ([4]; within a week after the discontinuation of metronidazole): began to deteriorate
rating of behavior problems previously severe in degree ([5]; after two months of metronidazole treatment): slight in degree or completely resolved
behavior during first week of treatment ([5]; metronidazole 500 mg b.i.d.): highly agitated
behavior after discontinuation ([5]; two weeks after metronidazole therapy was discontinued): behavior deteriorated
time of first deterioration in behavior ([6]; after first metronidazole course): two months following the discontinuance
clinical response, first course ([6]; metronidazole 250 mg t.i.d. six weeks, with prednisone and mesalamine): rapid improvement in attitude, mood and rebounded academically
clinical response, second course ([6]; metronidazole 500 mg t.i.d. for 30 days, within three weeks): dramatic improvement in their psychiatric symptoms

CN[C@H](CC(C)C)C(=O)N[C@H]1C(=O)N[C@@H](CC(N)=O)C(=O)N[C@H]2C(=O)N[C@H]3C(=O)N[C@H](C(=O)N[C@H](C(=O)O)c4cc(O)cc(O)c4-c4cc3ccc4O)[C@H](O)c3ccc(c(Cl)c3)Oc3cc2cc(c3O[C@@H]2O[C@H](CO)[C@@H](O)[C@H](O)[C@H]2O[C@H]2C[C@](C)(N)[C@H](O)[C@H](C)O2)Oc2ccc(cc2Cl)[C@H]1O [vancomycin]
duration of hyperactivity pattern ([3]; emerged three days after initiation of vancomycin): four
duration of lethargy ([3]; following hyperactivity pattern on vancomycin): two
behavior after vancomycin discontinuation ([3]; shortly after discontinuation, while taking probiotic agents): behavioral deterioration was observed
clinical response ([3]; vancomycin 125 mg q.i.d., 12-week trial): rapid and dramatic clinical improvement
composite score, Vineland Adaptive Behavior Scales ([3]; vancomycin 125 mg q.i.d., after 8 weeks): 19 months
increase of composite score, Vineland Adaptive Behavior Scales ([3]; vancomycin 125 mg q.i.d., first 8 weeks of treatment, baseline 11 months): 8 months
relapse after discontinuance of antimicrobial therapy (children with autism): relapsed within two weeks
response to treatment (children with autism; complete absence of peptostreptococcal species in stool): responded favorably
behavior, unblinded analog rating scale, group as a whole [7, 9]: improvement
communication, unblinded analog rating scale, group as a whole [7, 9]: improvement
subjects with a day of marked lethargy ([7]; after the hyperactivity period): One
basic blood, stool, and urine tests; physical examinations ([7]; baseline and throughout the study, all children): unremarkable
analog ratings at long-term follow-up ([7]; two to eight months after discontinuance, in all but one child): returned towards baseline
children with improvement during therapy, blinded assessment of coded, paired videotapes ([7]; vancomycin 500 mg/day orally for eight weeks, ten of eleven children scored by blinded psychologist): 8 of 10 and eight of ten
children with no change, blinded assessment of coded, paired videotapes [7, 10]: one
children with possible deterioration, blinded assessment of coded, paired videotapes [7, 10]: one
duration of period of hyperactivity ([7]; within three days of initiating antibiotic treatment): 1 to 4 days
children with a brief period of hyperactivity ([7]; within three days of initiating antibiotic treatment, eleven children): six
